The results in this text go back to patent US11174244B2, “Isoquinolin-3-yl carboxamides and preparation and use thereof” (BioSplice Therapeutics, Inc., priority 2016, dated 2021).

Broadly, the EC50 is the concentration that produces a half-maximal response. Low values mean an effect from little substance, high ones a need for much substance. As a reminder, the IC50 is the concentration that inhibits the measured activity by half. Read a low IC50 as inhibition by little substance.

For one assay, the system named is IL-6. Kind of assay: IL-6 inhibition (HTRF) in LPS-stimulated human peripheral blood mononuclear cells. It counts as cell-based. To be noted: IL-6 in LPS-stimulated huPBMCs; for value in parentheses after >10 (% inhibition at top concentration): where EC50 >10 μM; for EC50: 22 hours, dose-response starting from 10 μM. On the technique in general: Time-resolved FRET reads energy transfer from a long-lived donor to a nearby acceptor.

A further assay concerns Wnt activity. The experiment in a line: Screening assay for Wnt activity (Sp5-Luc reporter gene assay in SW480 cells). It counts as cell-based, human. Particulars: 36 to 48 hours.
Assay [1] concerns Tau phosphorylation at Ser396 (pSer396). Kind of assay: Tau phosphorylation assay (pSer396 ELISA / western blot) in SH-SY5Y cells. To be noted: overnight (16-18 h) exposure. The assay is classed as cell-based, human. On the technique in general: An ELISA detects its analyte on a solid surface through an enzyme-linked reagent.
Protocol: Two days before treatment, cells were seeded onto 96 well plates at 5×10^4 cells/well.
Wells were visually checked for cell death or change in morphology and supernatants were tested for cytotoxicity by measurement of lactate dehydrogenase release (LDH, CytoToxOne kit, Promega) if necessary.
Cells were lysed with RIPA buffer complemented with phosphatase and protease inhibitors then lysates were spun down at 12,000 g for 10 min to remove any cellular debris. Lysates are then either directly tested for pSer396 by ELISA (Life Technology, Kit KHB7031) or loaded on NuPage Bis-Tris gels for western blot analysis. Colorimetric detection of ELISA signal is performed by Cytation3 plate reader (Biotek) and the chemiluminescence signal for HRP-linked antibodies used in western blotting is detected using a Carestream Image Station. The same pSer396 antibody is used for detection of pTau in both assays.
A further assay concerns the target DYRK1A kinase (Homo sapiens (Human), UniProt Q13627). The experiment in a line: DYRK1A kinase activity assay (Ser/Thr 18 peptide Z-lyte, FRET). It counts as biochemical. To be noted: method calls the values IC50.
The subject of assay [2] is SW480 colon carcinoma cells. Kind of assay: Cell viability assay (CellTiter-Glo) in SW480 cells. It counts as cell-based, human. Particulars: four days incubation.
For assay [3], the system named is primary human fibroblasts derived from IPF patients (LL29 cells). The experiment in a line: Fibrosis assay: αSMA staining in TGF-β1 treated LL29 fibroblasts. To be noted: for EC50: LL29 fibroblasts treated with TGF-β1, 4 days, αSMA, dose-response 10 μM to […]. It counts as cell-based.
In a further assay the target is GSK3β kinase (Homo sapiens (Human), UniProt P49841). Kind of assay: GSK3β kinase activity assay (Ser/Thr 09 peptide Z-lyte, FRET). The assay is classed as biochemical. To be noted: method calls the values IC50.
GSK3β kinase, sequence (P49841 whole entry): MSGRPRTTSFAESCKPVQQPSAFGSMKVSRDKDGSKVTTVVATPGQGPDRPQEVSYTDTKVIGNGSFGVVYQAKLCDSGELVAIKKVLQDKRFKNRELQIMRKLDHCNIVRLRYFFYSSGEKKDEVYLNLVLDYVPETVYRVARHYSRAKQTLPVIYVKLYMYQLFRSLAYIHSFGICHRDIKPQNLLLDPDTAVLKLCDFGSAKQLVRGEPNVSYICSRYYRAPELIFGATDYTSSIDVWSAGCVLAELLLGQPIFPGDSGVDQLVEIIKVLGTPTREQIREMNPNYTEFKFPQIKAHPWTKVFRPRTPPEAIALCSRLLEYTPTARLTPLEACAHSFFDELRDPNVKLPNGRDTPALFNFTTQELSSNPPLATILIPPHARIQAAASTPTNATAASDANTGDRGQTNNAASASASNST
Another assay deals with secreted Aβ40 peptide. The experiment in a line: Secreted β-amyloid 40 (Aβ40) peptide assay in APP overexpressing SH-SY5Y-APP cells. To be noted: Homo sapiens, overnight (16-18 hours), supernatant. It counts as cell-based.

Protocol for IL-6: After 22 hour incubation, a mixture of ani-IL6XL665 and anti-IL-6 Cryptate diluted in reconstitution buffer (Catalog #62IL6PEC, Cisbio Inc., Bedford, Mass.) was added to each well. […] All samples were processed in duplicate. […] EC50 was determined using software generated by Dotmatics Limited (Windhill Bishops Stortford Herts, UK) using the Levenberg-Marquardt 4 parameter fitting procedure with finite different gradients.
Protocol for Wnt activity: The screening assay for Wnt activity is described as follows.
Following incubation, 15 μl of BriteLite Plus luminescence reagent (Perkin Elmer) was added to each well of the 384-well assay plates. The plates were placed on an orbital shaker for 2 min and then luminescence was quantified using the Envision (Perkin Elmer) plate reader.
Protocol for secreted Aβ40 peptide: SH-SY5Y cells were infected with lentivirus to overexpress amyloid (A4) beta precursor protein (APP), hereafter referred to as the SH-SY5Y-APP cells.
SH-SY5Y cells were seeded onto 6-well plates at 5.0×10
[formula] and incubated overnight at 37° C.
Polybrene added for permeability (H9268, Sigma). 24 hours post-transfection, the entire volume from each well was replaced with regular SH-SY5Y medium.
Puromycin-resistant cell were then expanded, harvested and banked. APP-overexpression was controlled by immunoblotting for total APP and Myc-DDK.
The cell assay procedure start 18 h prior to treatment, as SH-SY5Y-APP cells were seeded onto 96-well plates at 2.0×10^4
At this time, designated wells were seeded with SH-SY5Y cells that were seeded and treated with puromycin at 10
Cells were exposed overnight (16-18 hours) in a 37° C. incubator before supernatant was harvested. […] The original plates with seeded cells were tested for cytotoxicity by measure of adenosine triphosphate (ATP) release by adding CellTiter-Glo® diluted 1:4 in distilled water (G7573, Promega) and transferring lysed cells to a completely black 96-well plate to be read with the Cytation3. Plates containing supernatant were spun down at 1200 g for 10 minutes to remove any cellular debris. […]

Turning to `Cn1cc(-c2ccc3cnc(NC(=O)CN4C5CCC4COC5)cc3c2)cn1` [Compound 347, 2-(3-Oxa-8-azabicyclo[3.2.1]octan-8-yl)-N-(6-(1-methyl-1H-pyrazol-4-yl)isoquinolin-3-yl)acetamide], the “value in parentheses after >10 (% inhibition at top concentration)” value (“value … (% inhibition at top concentration)” below) with IL-6 is 4.5%.
Consider “N-(6-(1-Methyl-1H-pyrazol-4-yl)isoquinolin-3-yl)-2-(pyrrolidin-1-yl-2,2,5,5-d4)acetamide [Compound 315]”, for which the EC50 with Wnt activity turned out to be 1.59 µM; in assay [1] it was 0.346 µM; at DYRK1A kinase it was 0.0123 µM; in assay [2], 1.25 µM; in the assay on IL-6 it was 0.819 µM; in assay [3], 1.82 µM. Moreover, the midpoint of the response on GSK3β kinase, the EC50, lay at 0.044 µM.
For “N-(6-(1-Methyl-1H-pyrazol-4-yl)isoquinolin-3-yl)-2-(6-azaspiro[2.5]octan-6-yl)acetamide [Compound 296]”, the EC50 in the assay on Wnt activity was 3.48 µM; in assay [1], 0.978 µM; at DYRK1A kinase it was 0.0143 µM; in assay [2], 3.46 µM; with IL-6, 1.57 µM; in assay [3], 1.96 µM. The same molecule registered an EC50 on GSK3β kinase of 0.08 µM.
Regarding `Cn1cc(-c2ccc3cnc(NC(=O)CN4C5CCC4CC5)cc3c2)nn1` [Compound 513, 2-(7-Azabicyclo[2.2.1]heptan-7-yl)-N-(6-(1-methyl-1H-1,2,3-triazol-4-yl)isoquinolin-3-yl)acetamide], the “value … (% inhibition at top concentration)” value in the assay on IL-6 came out at 14.5%.
In the assay on secreted Aβ40 peptide, `Cn1cncc1-c1ccc2cnc(NC(=O)C3C(C)(C)C3(C)C)cc2c1` [Compound 269, 2,2,3,3-Tetramethyl-N-[6-(3-methylimidazol-4-yl)-3-isoquinolyl]cyclopropanecarboxamide] had an IC50 of more than 10 µM.
Consider `Cn1cc(-c2ccc3cnc(NC(=O)C4C(C)(C)C4(C)C)cc3c2)nn1` [Compound 277, 2,2,3,3-Tetramethyl-N-(6-(1-methyl-1H-1,2,3-triazol-4-yl)isoquinolin-3-yl) cyclopropane-1-carboxamide], for which the “value … (% inhibition at top concentration)” value in the assay with IL-6 came to 4.0%.
With `Cc1nnc(-c2ccc3cnc(NC(=O)CN4C5CCC4COC5)cc3c2)s1` [Compound 962, 2-(3-Oxa-8-azabicyclo[3.2.1]octan-8-yl)-N-(6-(5-methyl-1,3,4-thiadiazol-2-yl)isoquinolin-3-yl)acetamide], in the assay on IL-6, the “value … (% inhibition at top concentration)” value came to 9.6%.
For `Cc1nnc(-c2ccc3cnc(NC(=O)CN4C5CCC4CC5)cc3c2)s1` [Compound 959, 2-(7-Azabicyclo[2.2.1]heptan-7-yl)-N-(6-(5-methyl-1,3,4-thiadiazol-2-yl)isoquinolin-3-yl)acetamide], in the assay on IL-6, the “value … (% inhibition at top concentration)” value stood at 6.1%.
With `Cn1cc(-c2ccc3cnc(NC(=O)C45CCN(CC4)CC5)cc3c2)cn1` [Compound 1071, N-(6-(1-Methyl-1H-pyrazol-4-yl)isoquinolin-3-yl)quinuclidine-4-carboxamide], in the assay on IL-6, the “value … (% inhibition at top concentration)” value was found to be 8.8%.
Turning to `CC(C)CN1CCC[C@@H](C(=O)Nc2cc3cc(-c4cnn5c4CN(CCF)CC5)ccc3cn2)C1` [Compound 1002, (R)—N-(6-(5-(2-Fluoroethyl)-4,5,6,7-tetrahydropyrazolo[1,5-a]pyrazin-3-yl)isoquinolin-3-yl)-1-isobutylpiperidine-3-carboxamide], the “value … (% inhibition at top concentration)” value in assay [3] (LL29 fibroblasts treated with TGF-β1, where EC50 >10 μM) was 27.5%.
